Experimental data published in patent US20220323406A1, “METHODS AND COMPOSITIONS FOR DIFFERENTIATING STEM CELLS” (Massachusetts Institute of Technology, priority 2019, published 2022).

Tests used:
[1] = tested on: ENR+CD organoids (ISC to Paneth cell differentiation); assay: Primary screen: CCh-stimulated lysozyme secretion LYZ.S, 2.5-D 384-well ENR+CD organoid differentiation; format: cell-based, mouse; conditions: primary screen
Source text: (§1) High-throughput screening.

[2] = tested on: ENR+CD organoids (ISC to Paneth cell differentiation); assay: Primary screen: basal (non-stimulated) lysozyme secretion LYZ.NS, 2.5-D 384-well ENR+CD organoid differentiation; format: cell-based, mouse
Source text: as §1

[3] = tested on: ENR+CD organoids; assay: Primary screen: ATP (CellTiter-Glo 3D, CTG) cell number/viability, 2.5-D 384-well ENR+CD organoids;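 also: compounds given at plating and again on day 3 over a 6-day differentiation from ENR+CV stem-cell-enriched precursors, ATP measured on day 6, plate median as control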
[4] = dose 0.08 uM, FC relative to plate median
[5] = dose 0.40 uM, FC relative to plate median
[6] = dose 2.00 uM, FC relative to plate median
[7] = dose 10.00 uM, FC relative to plate median
[8] = primary screen, dose 0.08 uM, FC relative to plate median
[9] = primary screen, dose 0.08 uM, standard z score
[10] = primary screen, dose 0.40 uM, FC relative to plate median
[11] = primary screen, dose 0.40 uM, standard z score
[12] = primary screen, dose 2.00 uM, FC relative to plate median
[13] = primary screen, dose 2.00 uM, standard z score
[14] = primary screen, dose 10.00 uM, FC relative to plate median
[15] = primary screen, dose 10.00 uM, standard z score
[16] = dose 0.08 uM, FC vs plate median
[17] = dose 0.40 uM, FC vs plate median
[18] = dose 2.00 uM, FC vs plate median
[19] = dose 10.00 uM, FC vs plate median
[20] = primary screen; dose 0.08 uM; FC vs plate median
[21] = primary screen; dose 0.40 uM; FC vs plate median
[22] = primary screen; dose 2.00 uM; FC vs plate median
[23] = primary screen; dose 10.00 uM; FC vs plate median
[24] = primary screen, standard z score, dose 0.08 uM
[25] = primary screen, standard z score, dose 0.40 uM
[26] = primary screen, standard z score, dose 2.00 uM
[27] = primary screen, standard z score, dose 10.00 uM

Row | SMILES | Z.LYZ.NS [2, 9] | Z.LYZ.NS [2, 11] | Z.LYZ.NS [2, 13] | Z.LYZ.NS [2, 15] | Z.CTG [3, 9] | Z.CTG [3, 11] | Z.CTG [3, 13] | Z.CTG [3, 15] | Dose.FC.LYZ.S ([1]; dose 0.08 uM) | Dose.FC.LYZ.S ([1]; dose 0.40 uM) | Dose.FC.LYZ.S ([1]; dose 2.00 uM) | Dose.FC.LYZ.S ([1]; dose 10.00 uM) | Dose.FC.LYZ.NS ([2]; primary screen, dose 0.08 uM) | Dose.FC.LYZ.NS ([2]; primary screen, dose 0.40 uM) | Dose.FC.LYZ.NS ([2]; primary screen, dose 2.00 uM) | Dose.FC.LYZ.NS ([2]; primary screen, dose 10.00 uM) | Dose.FC.CTG ([3]; primary screen, dose 0.08 uM) | Dose.FC.CTG ([3]; primary screen, dose 0.40 uM) | Dose.FC.CTG ([3]; primary screen, dose 2.00 uM) | Dose.FC.CTG ([3]; primary screen, dose 10.00 uM) | other results
1 | Cc1cc(Nc2ccc(NC(=O)c3ccc(Nc4ccnc5ccccc45)cc3)cc2)nc(N)n1 [SGI-1027] | 0.528 | 0.735 | 1.123 | −0.046 | 0.583 | 0.712 | 0.412 | 0.125 |  |  |  |  |  |  |  |  |  |  |  |  | Dose.FC.LYZ.S [1, 4]: 0.060 log2 fold change; Dose.FC.LYZ.S [1, 5]: 0.145 log2 fold change; Dose.FC.LYZ.S [1, 6]: 0.094 log2 fold change; Dose.FC.LYZ.S [1, 7]: 0.018 log2 fold change; Dose.FC.LYZ.NS [2, 8]: 0.061 log2 fold change; Dose.FC.LYZ.NS [2, 10]: 0.084 log2 fold change; Dose.FC.LYZ.NS [2, 12]: 0.129 log2 fold change; Dose.FC.LYZ.NS [2, 14]: −0.005 log2 fold change; Dose.FC.CTG [3, 8]: 0.244 log2 fold change; Dose.FC.CTG [3, 10]: 0.298 log2 fold change; Dose.FC.CTG [3, 12]: 0.172 log2 fold change; Dose.FC.CTG [3, 14]: 0.052 log2 fold change
2 | CC(=O)Nc1cccc2c1c(Sc1ccc(Cl)cc1)c(C)n2CC(=O)O [AZD1981] |  |  |  |  |  |  |  |  | 0.023 log2 fold change | 0.191 log2 fold change | 0.014 log2 fold change | 0.070 log2 fold change | 0.009 log2 fold change | 0.001 log2 fold change | 0.001 log2 fold change | 0.024 log2 fold change | 0.400 log2 fold change | 0.285 log2 fold change | 0.099 log2 fold change | 0.238 log2 fold change | Z.LYZ.NS (standard z score) ([2]; primary screen, dose 0.08 uM): 0.081; Z.LYZ.NS (standard z score) ([2]; primary screen, dose 0.40 uM): 0.008; Z.LYZ.NS (standard z score) ([2]; primary screen, dose 2.00 uM): 0.011; Z.LYZ.NS (standard z score) ([2]; primary screen, dose 10.00 uM): 0.205; Z.CTG (standard z score) ([3]; primary screen, dose 0.08 uM): 0.955; Z.CTG (standard z score) ([3]; primary screen, dose 0.40 uM): 0.681; Z.CTG (standard z score) ([3]; primary screen, dose 2.00 uM): 0.236; Z.CTG (standard z score) ([3]; primary screen, dose 10.00 uM): 0.570
3 | O=C(NOCC1CC1)c1ccc(F)c(F)c1Nc1ccc(I)cc1Cl [PD184352 (CI-1040)] | −0.162 | −0.458 | −1.176 | −1.011 | 0.874 | 0.624 | −0.506 | −1.901 |  |  |  |  |  |  |  |  |  |  |  |  | Dose.FC.LYZ.S [1, 16]: −0.019 log2 fold change; Dose.FC.LYZ.S [1, 17]: −0.047 log2 fold change; Dose.FC.LYZ.S [1, 18]: −0.178 log2 fold change; Dose.FC.LYZ.S [1, 19]: −0.239 log2 fold change; Dose.FC.LYZ.NS [2, 20]: −0.019 log2 fold change; Dose.FC.LYZ.NS [2, 21]: −0.053 log2 fold change; Dose.FC.LYZ.NS [2, 22]: −0.135 log2 fold change; Dose.FC.LYZ.NS [2, 23]: −0.116 log2 fold change; Dose.FC.CTG [3, 20]: 0.366 log2 fold change; Dose.FC.CTG [3, 21]: 0.261 log2 fold change; Dose.FC.CTG [3, 22]: −0.212 log2 fold change; Dose.FC.CTG [3, 23]: −0.796 log2 fold change
4 | CCCSc1nc(N[C@@H]2C[C@H]2c2ccc(F)c(F)c2)c2nnn([C@@H]3C[C@H](OCCO)[C@@H](O)[C@H]3O)c2n1 [Ticagrelor] |  |  |  |  |  |  |  |  | 0.042 log2 fold change | 0.000 log2 fold change | 0.018 log2 fold change | 0.022 log2 fold change | 0.115 log2 fold change | −0.032 log2 fold change | 0.120 log2 fold change | 0.020 log2 fold change | −0.080 log2 fold change | −0.029 log2 fold change | −0.270 log2 fold change | −0.241 log2 fold change | Z.LYZ.NS (standard z score) ([2]; primary screen, dose 0.08 uM): 0.998; Z.LYZ.NS (standard z score) ([2]; primary screen, dose 0.40 uM): −0.276; Z.LYZ.NS (standard z score) ([2]; primary screen, dose 2.00 uM): 1.041; Z.LYZ.NS (standard z score) ([2]; primary screen, dose 10.00 uM): 0.170
5 | CCN[C@H]1CN(CCCOC)S(=O)(=O)c2sc(S(N)(=O)=O)cc21 [Brinzolamide] |  |  |  |  |  |  |  |  | 0.030 log2 fold change | 0.052 log2 fold change | 0.064 log2 fold change | 0.083 log2 fold change | 0.133 log2 fold change | 0.084 log2 fold change | 0.059 log2 fold change | 0.060 log2 fold change | −0.007 log2 fold change | −0.068 log2 fold change | 0.118 log2 fold change | 0.078 log2 fold change | Z.LYZ.NS (standard z score) ([2]; primary screen, dose 0.08 uM): 1.159; Z.LYZ.NS (standard z score) ([2]; primary screen, dose 0.40 uM): 0.733; Z.LYZ.NS (standard z score) ([2]; primary screen, dose 2.00 uM): 0.511; Z.LYZ.NS (standard z score) ([2]; primary screen, dose 10.00 uM): 0.521; Z.CTG (standard z score) ([3]; primary screen, dose 0.40 uM): −0.163; Z.CTG (standard z score) ([3]; primary screen, dose 2.00 uM): 0.282; Z.CTG (standard z score) ([3]; primary screen, dose 10.00 uM): 0.186
6 | Cc1[nH]c2ccccc2c1CCNCc1ccc(/C=C/C(=O)NO)cc1 [Panobinostat (LBH589)] | 0.014 | −0.232 | −1.329 | −1.891 | 0.706 | 0.506 | −1.283 | −2.395 |  |  |  |  |  |  |  |  |  |  |  |  | Dose.FC.LYZ.S [1, 16]: −0.034 log2 fold change; Dose.FC.LYZ.S [1, 17]: −0.042 log2 fold change; Dose.FC.LYZ.S [1, 18]: −0.285 log2 fold change; Dose.FC.LYZ.S [1, 19]: −0.320 log2 fold change; Dose.FC.LYZ.NS [2, 20]: 0.002 log2 fold change; Dose.FC.LYZ.NS [2, 21]: −0.027 log2 fold change; Dose.FC.LYZ.NS [2, 22]: −0.153 log2 fold change; Dose.FC.LYZ.NS [2, 23]: −0.217 log2 fold change; Dose.FC.CTG [3, 20]: 0.295 log2 fold change; Dose.FC.CTG [3, 21]: 0.212 log2 fold change; Dose.FC.CTG [3, 22]: −0.537 log2 fold change; Dose.FC.CTG [3, 23]: −1.003 log2 fold change
7 | O=S(=O)(c1ccccc1)N(CC(F)(F)F)c1ccc(C(O)(C(F)(F)F)C(F)(F)F)cc1 [T0901317] | 0.748 | 0.369 | 0.644 | −0.130 |  |  |  |  |  |  |  |  |  |  |  |  |  |  |  |  | Dose.FC.LYZ.S [1, 4]: 0.111 log2 fold change; Dose.FC.LYZ.S [1, 5]: 0.077 log2 fold change; Dose.FC.LYZ.S [1, 6]: 0.070 log2 fold change; Dose.FC.LYZ.S [1, 7]: −0.034 log2 fold change; Dose.FC.LYZ.NS [2, 8]: 0.086 log2 fold change; Dose.FC.LYZ.NS [2, 10]: 0.042 log2 fold change; Dose.FC.LYZ.NS [2, 12]: 0.074 log2 fold change; Dose.FC.LYZ.NS [2, 14]: −0.015 log2 fold change; Dose.FC.CTG [3, 8]: 0.047 log2 fold change; Dose.FC.CTG [3, 10]: 0.178 log2 fold change; Dose.FC.CTG [3, 12]: 0.096 log2 fold change; Dose.FC.CTG [3, 14]: 0.114 log2 fold change
8 | Nc1ncnc2n[nH]c(Nc3ccc(F)cc3)c12 [CGP57380] |  |  |  |  |  |  |  |  | 0.096 log2 fold change | 0.054 log2 fold change | −0.095 log2 fold change | −0.088 log2 fold change | 0.218 log2 fold change | −0.041 log2 fold change | −0.055 log2 fold change | −0.037 log2 fold change | 0.108 log2 fold change | −0.293 log2 fold change | −0.460 log2 fold change | 0.055 log2 fold change | Z.LYZ.NS [2, 24]: 1.900; Z.LYZ.NS [2, 25]: −0.354; Z.LYZ.NS [2, 26]: −0.477; Z.LYZ.NS [2, 27]: −0.321; Z.CTG [3, 24]: 0.258; Z.CTG [3, 25]: −0.700; Z.CTG [3, 26]: −1.098; Z.CTG [3, 27]: 0.132
